{"source": "paper PMC11149917", "about": "“Translational and Therapeutic Evaluation of RAS-GTP Inhibition by RMC-6236 in RAS-Driven Cancers” (Cancer Discovery, 2024)", "system": "PRISM panel of 845 cancer cell lines", "test": "PRISM assay", "assay_type": "cell-based, human", "procedure": "The PRISM cell set comprised 845 cell lines representing more than 45 lineages (see Supplementary Table S1 for cell line information), which largely overlapped with the Cancer Cell Line Encyclopedia; https://portals.broadinstitute.org/ccle). Cell lines were grown in RPMI without phenol red and supplemented with 10% or 20% FBS for adherent and suspended lines, respectively. Parental cell lines were stably infected with a unique 24-nucleotide DNA barcode via lentiviral transduction and blasticidin selection. After selection, barcoded cell lines were expanded and subjected to quality control (Mycoplasma contamination test, an SNP test for confirming cell line identity, and barcode ID confirmation). Approved cell lines were then pooled (20–25 cell lines per pool) based on doubling time similarity and frozen in assay-ready vials.\nRMC-6236 was added to 384-well plates at 8-point concentration with 3-fold dilutions in triplicate. These assay-ready plates were then seeded with the thawed cell line pools. Adherent cell pools were plated at 1,250 cells per well, whereas suspension and mixed adherent/suspension pools were plated at 2,000 cells per well. Treated cells were incubated for 5 days, and then lysed. Lysate plates were collapsed together prior to barcode amplification and detection.\nEach cell line's unique barcode is located in the 3′UTR of the blasticidin-resistance gene and therefore is expressed as mRNA. Total mRNA was captured using magnetic particles that recognize polyA sequences. Captured mRNA was reverse-transcribed into cDNA and then the sequence containing the unique PRISM barcode was amplified using PCR. Finally, Luminex beads that recognize the specific barcode sequences in the cell set were hybridized to the PCR products and detected using a Luminex scanner which reports the signal as a median fluorescent intensity (MFI).\n• Each detection well contained 10 control barcodes in increasing abundances as spike-in controls. For each plate, we first create a reference profile by calculating the median of the log2(MFI) values across negative control wells for each of these spiked-in barcodes. • For each well, a monotonic smooth p-spline was fitted to map the spike-in control levels to the reference profile. Next, we transform the log2(MFI) for each cell barcode using the fitted spline to allow well-to-well comparisons by correcting for amplification and detection artifacts. • Next, the separability between negative and positive control treatments was assessed. In particular, we calculated the error rate of the optimum simple threshold classifier between the control samples for each cell line and plate combination. The error rate is a measure of the overlap of the two control sets and was defined as error = (FP + FN)/n, where FP is false positives, FN is false negatives, and n is the total number of controls. A threshold was set between the distributions of positive and negative control log2(MFI) values (with everything below the threshold said to be positive and above said to be negative) such that this value is minimized. Additionally, we also calculated the dynamic range of each cell line. […] Additionally, any cell line that had less than 2 passing replicates was also omitted for the sake of reproducibility. Finally, we computed viability by normalizing with respect to the median negative control for each plate.\nFor every gene with nonsilent mutations in at least four cell lines, we compared the AUC values between cells with and without those mutations using a t test. This analysis was carried out for (i) the full data set; (ii) excluding cell lines with nonsilent KRAS mutations; and (iii) excluding cell lines that have either KRAS or NRAS nonsilent mutations."}
{"smiles": "CCn1c(-c2cc(N3CCN(C)CC3)cnc2[C@H](C)OC)c2c3cc(ccc31)-c1csc(n1)C[C@H](NC(=O)[C@H]1C[C@@H]1C)C(=O)N1CCC[C@H](N1)C(=O)OCC(C)(C)C2", "note": "[RMC-6236]", "values": [{"measurement": "RMC-6236: RevMed PRISM: AUC", "setting": "22RV1_PROSTATE", "value": 0.9065}, {"measurement": "RMC-6236: RevMed PRISM: AUC", "setting": "A427_LUNG, KRAS p.G12D", "value": 0.4282}, {"measurement": "RMC-6236: RevMed PRISM: AUC", "setting": "A704_KIDNEY", "value": 1}, {"measurement": "RMC-6236: RevMed PRISM: AUC", "setting": "A1207_CENTRAL_NERVOUS_SYSTEM", "value": 1}, {"measurement": "RMC-6236: RevMed PRISM: AUC", "setting": "BICR16_UPPER_AERODIGESTIVE_TRACT", "value": 0.548}, {"measurement": "RMC-6236: RevMed PRISM: AUC", "setting": "CAL54_KIDNEY", "value": 1}, {"measurement": "RMC-6236: RevMed PRISM: AUC", "setting": "CAL72_BONE", "value": 0.8456}, {"measurement": "RMC-6236: RevMed PRISM: AUC", "setting": "CAL120_BREAST", "value": 0.7982}, {"measurement": "RMC-6236: RevMed PRISM: AUC", "setting": "CHLA15_AUTONOMIC_GANGLIA", "value": 0.6747}, {"measurement": "RMC-6236: RevMed PRISM: AUC", "setting": "COLO678_LARGE_INTESTINE, KRAS p.G12D", "value": 0.7109}, {"measurement": "RMC-6236: RevMed PRISM: AUC", "setting": "COLO679_SKIN", "value": 0.8171}, {"measurement": "RMC-6236: RevMed PRISM: AUC", "setting": "CORL23_LUNG, KRAS p.G12V", "value": 0.4445}, {"measurement": "RMC-6236: RevMed PRISM: AUC", "setting": "DETROIT562_UPPER_AERODIGESTIVE_TRACT", "value": 0.5051}, {"measurement": "RMC-6236: RevMed PRISM: AUC", "setting": "DMS53_LUNG", "value": 0.9861}, {"measurement": "RMC-6236: RevMed PRISM: AUC", "setting": "EBC1_LUNG", "value": 0.478}, {"measurement": "RMC-6236: RevMed PRISM: AUC", "setting": "ECGI10_OESOPHAGUS", "value": 0.6603}, {"measurement": "RMC-6236: RevMed PRISM: AUC", "setting": "EW8_BONE", "value": 0.6608}, {"measurement": "RMC-6236: RevMed PRISM: AUC", "setting": "EWS502_BONE", "value": 0.706}, {"measurement": "RMC-6236: RevMed PRISM: AUC", "setting": "FADU_UPPER_AERODIGESTIVE_TRACT", "value": 0.6934}, {"measurement": "RMC-6236: RevMed PRISM: AUC", "setting": "G292CLONEA141B1_BONE", "value": 0.9519}, {"measurement": "RMC-6236: RevMed PRISM: AUC", "setting": "GB2_BILIARY_TRACT", "value": 0.6327}, {"measurement": "RMC-6236: RevMed PRISM: AUC", "setting": "H357_UPPER_AERODIGESTIVE_TRACT, HRAS p.G13S", "value": 0.44}, {"measurement": "RMC-6236: RevMed PRISM: AUC", "setting": "HARA_LUNG", "value": 0.583}, {"measurement": "RMC-6236: RevMed PRISM: AUC", "setting": "HCC827_LUNG", "value": 0.8007}, {"measurement": "RMC-6236: RevMed PRISM: AUC", "setting": "HCC1195_LUNG, NRAS p.Q61L", "value": 0.7308}, {"measurement": "RMC-6236: RevMed PRISM: AUC", "setting": "HCC1937_BREAST", "value": 0.9056}, {"measurement": "RMC-6236: RevMed PRISM: AUC", "setting": "HCSC1_CERVIX, NRAS p.G13R", "value": 1}, {"measurement": "RMC-6236: RevMed PRISM: AUC", "setting": "HDQP1_BREAST", "value": 0.5485}, {"measurement": "RMC-6236: RevMed PRISM: AUC", "setting": "HEYA8_OVARY, KRAS p.G12D", "value": 0.6142}, {"measurement": "RMC-6236: RevMed PRISM: AUC", "setting": "HT29_LARGE_INTESTINE", "value": 0.9177}, {"measurement": "RMC-6236: RevMed PRISM: AUC", "setting": "HT115_LARGE_INTESTINE", "value": 0.7857}, {"measurement": "RMC-6236: RevMed PRISM: AUC", "setting": "IGR39_SKIN", "value": 0.916}, {"measurement": "RMC-6236: RevMed PRISM: AUC", "setting": "JHH6_LIVER", "value": 0.7876}, {"measurement": "RMC-6236: RevMed PRISM: AUC", "setting": "JHOC5_OVARY", "value": 0.7067}, {"measurement": "RMC-6236: RevMed PRISM: AUC", "setting": "KE39_STOMACH", "value": 0.7632}, {"measurement": "RMC-6236: RevMed PRISM: AUC", "setting": "KE97_STOMACH", "value": 0.8452}, {"measurement": "RMC-6236: RevMed PRISM: AUC", "setting": "KKU100_BILIARY_TRACT, KRAS p.G12D", "value": 0.4482}, {"measurement": "RMC-6236: RevMed PRISM: AUC", "setting": "KKU213_BILIARY_TRACT, KRAS p.G13C", "value": 0.6654}, {"measurement": "RMC-6236: RevMed PRISM: AUC", "setting": "KLE_ENDOMETRIUM", "value": 0.9884}, {"measurement": "RMC-6236: RevMed PRISM: AUC", "setting": "KMS34_HAEMATOPOIETIC_AND_LYMPHOID_TISSUE", "value": 0.7785}, {"measurement": "RMC-6236: RevMed PRISM: AUC", "setting": "KOSC2CL343_UPPER_AERODIGESTIVE_TRACT", "value": 0.6166}, {"measurement": "RMC-6236: RevMed PRISM: AUC", "setting": "KP2_PANCREAS, KRAS p.G12R", "value": 0.4026}, {"measurement": "Median AUC (PRISM)", "setting": "KRAS^MUT cell lines", "value": 0.57}, {"measurement": "RMC-6236: RevMed PRISM: AUC", "setting": "KU1919_URINARY_TRACT, NRAS p.Q61R", "value": 0.3992}, {"measurement": "RMC-6236: RevMed PRISM: AUC", "setting": "KYSE30_OESOPHAGUS, HRAS p.Q61L", "value": 0.6346}, {"measurement": "RMC-6236: RevMed PRISM: AUC", "setting": "KYSE150_OESOPHAGUS", "value": 0.7237}, {"measurement": "RMC-6236: RevMed PRISM: AUC", "setting": "KYSE410_OESOPHAGUS, KRAS p.G12C", "value": 0.5271}, {"measurement": "RMC-6236: RevMed PRISM: AUC", "setting": "KYSE450_OESOPHAGUS", "value": 0.5198}, {"measurement": "RMC-6236: RevMed PRISM: AUC", "setting": "LI7_LIVER", "value": 0.743}, {"measurement": "RMC-6236: RevMed PRISM: AUC", "setting": "LOVO_LARGE_INTESTINE, KRAS p.G13D", "value": 0.6638}, {"measurement": "RMC-6236: RevMed PRISM: AUC", "setting": "LOXIMVI_SKIN", "value": 0.876}, {"measurement": "RMC-6236: RevMed PRISM: AUC", "setting": "LS411N_LARGE_INTESTINE", "value": 1}]}
